Test results taken from patent US20160016951A1 (Merck Patent GmbH, priority 2014, published 2016).
Structures can show the parent of a compound that is named as a salt. Where two headings read alike, the source gives them in different places.

Target: T1, CDK8 (CDK8/CycC) (Homo sapiens, UniProt P49336)
T1 construct: purchased Invitrogen PV4402
Experiment: FRET based Lanthascreen binding competition assay
Experimental: FRET based Lanthascreen binding competition assay: A dye-labeled ATP competitive probe served as a FRET acceptor upon binding to CDK8 labeled with a strepavidin —Eu-chelate (via abiotinylated anti His antibody). […] In case this probe was competed by an inhibitor as such a signal cannot be generated any more. The CDK8 used for this assay was a protein co-expressed with CycC.
The assay procedure for an assay in a 1536 well plate was performed according to the following: 2 μL CDK8/biotin-anti-His Ab/SA-Eu mix in Assay buffer were pipetted into the wells of a micro plate.
1 μL compound in 20 mM Hepes buffer/5% DMSO was added. The plate was shaken for 30 sec and incubated for 20 min at RT. 2 μL Alexa647-probe in assay buffer were added. The plate was shaken for 30 sec again and incubated for 60 min at RT in the dark. Then the plate was read out on a Perkin Elmer Envision (mode LANCE/TRF, excitation 340 nm emission 650 nm).

[1] = 5 nM CDK8/CycC, 10 nM Alexa647-Tracer, 1% DMSO, 60 min at RT, read-out: IC50 CDK8 binding

T1 sequence (P49336 whole entry): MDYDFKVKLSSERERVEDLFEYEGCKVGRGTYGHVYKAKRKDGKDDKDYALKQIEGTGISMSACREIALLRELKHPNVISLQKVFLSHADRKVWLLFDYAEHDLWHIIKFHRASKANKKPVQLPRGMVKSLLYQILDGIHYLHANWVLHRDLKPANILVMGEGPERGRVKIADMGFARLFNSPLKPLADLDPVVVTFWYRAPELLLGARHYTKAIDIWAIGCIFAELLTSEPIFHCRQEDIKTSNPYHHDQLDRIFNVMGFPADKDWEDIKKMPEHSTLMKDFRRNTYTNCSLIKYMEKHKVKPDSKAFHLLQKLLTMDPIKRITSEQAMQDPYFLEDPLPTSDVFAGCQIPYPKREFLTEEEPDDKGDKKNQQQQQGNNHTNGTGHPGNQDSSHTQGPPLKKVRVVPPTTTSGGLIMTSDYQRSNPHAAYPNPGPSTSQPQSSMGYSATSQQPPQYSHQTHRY
T1 sequence (P24863 whole entry partner): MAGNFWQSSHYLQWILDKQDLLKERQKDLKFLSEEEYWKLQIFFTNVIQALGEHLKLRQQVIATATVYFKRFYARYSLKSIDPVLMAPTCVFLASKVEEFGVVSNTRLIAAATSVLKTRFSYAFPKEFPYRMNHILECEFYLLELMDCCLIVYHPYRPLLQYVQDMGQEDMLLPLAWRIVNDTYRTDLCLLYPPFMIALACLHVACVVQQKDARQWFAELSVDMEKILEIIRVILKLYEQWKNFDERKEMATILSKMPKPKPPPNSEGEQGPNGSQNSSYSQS

For CN1c2ccc(-c3cncc4ccc(CN)nc34)cc2CS1(=O)=O [Compound 71, C-[8-(1-Methyl-2,2-dioxo-2,3-dihydro-1H-benzo[c]isothiazol-5-yl)-[1,6]naphthyridin-2-yl]-methylamine], the IC50 [1] was 101 to 500 nM.

Work on Cc1ncc(-c2ccc(-c3cnn(C)c3)cc2)c2nc(C(N)=O)ccc12 [Compound 61, 5-Methyl-8-(4-(1-methyl-1H-pyrazol-4-yl)phenyl)-1,6-naphthyridine-2-carboxamide] yielded an IC50 [1] of 101 to 500 nM.

CN1c2ccc(-c3cncc4ccc(C(=O)NC5CC5)nc34)cc2CS1(=O)=O [Compound 21, 8-(1-Methyl-2,2-dioxo-2,3-dihydro-1H-benzo[c]isothiazol-5-yl)-[1,6]naphthyridine-2-carboxylic acid cyclopropylamide] gave an IC50 [1] of less than 10 nM.

For CNC(=O)c1nc2c(-c3ccc4c(c3)CS(=O)(=O)N4C)cncc2cc1C [Compound 12, 3-Methyl-8-(1-methyl-2,2-dioxo-2,3-dihydro-1H-benzo[c]isothiazol-5-yl)-[1,6]naphthyridine-2-carboxylic acid methylamide], the IC50 [1] was less than 10 nM.

Cn1cc(-c2ccc(-c3cncc4ccc(C(=O)N5CCCC(F)(F)C5)nc34)cc2)cn1 [Compound 82, (3,3-difluoropiperidin-1-yl)(8-(4-(1-methyl-1H-pyrazol-4-yl)phenyl)-1,6-naphthyridin-2-yl)methanone] gave an IC50 [1] of 10 to 100 nM.

In the case of CC(C)S(=O)(=O)Nc1ccc2cncc(-c3ccc(-c4cnn(C)c4)cc3)c2c1 [Compound 157, Propane-2-sulfonic acid {4-[4-(1-methyl-1H-pyrazol-4-yl)-phenyl]-isoquinolin-6-yl}-amide], the IC50 [1] is reported as less than 10 nM.

Work on Cc1nc(-c2ccc(-c3cnc(N)c4ccc(C(=O)N5CC(F)(F)C5)cc34)cc2)cn1C [Compound 176, {1-Amino-4-[4-(1,2-dimethyl-1H-imidazol-4-yl)-phenyl]-isoquinolin-6-yl}-(3,3-difluoro-azetidin-1-yl)-methanone] yielded an IC50 [1] of 10 to 100 nM.

Cn1ncc2cc(-c3cncc4ccc(C#N)cc34)ccc21 [Compound 120, 4-(1-methyl-1H-indazol-5-yl)isoquinoline-6-carbonitrile] was tested, and the IC50 [1] was 10 to 100 nM.

Work on O=C(c1ccc2cnccc2n1)N1CCC[C@H]1c1ccc(Br)cc1 [Compound 84, (S)-(2-(4-bromophenyl)pyrrolidin-1-yl)(1,6-naphthyridin-2-yl)methanone] yielded an IC50 [1] of 10 to 100 nM.

Cn1cc(-c2ccc(-c3cncc4ccc(S(C)(=O)=O)cc34)cc2)cn1 [Compound 189, 6-Methanesulfonyl-4-[4-(1-methyl-1H-pyrazol-4-yl)-phenyl]-isoquinoline] gave an IC50 [1] of 10 to 100 nM.

For Cn1cc(-c2ccc(-c3cncc4ccc(C(=O)O)cc34)cc2)cn1 [Compound 95, 4-(4-(1-methyl-1H-pyrazol-4-yl)phenyl)isoquinoline-6-carboxylic acid hydrochloride], the IC50 was less than 10 nM.

For Cc1ccc2cncc(-c3ccc4c(c3)CS(=O)(=O)N4C)c2n1 [Compound 65, 1-Methyl-5-(2-methyl-1,6-naphthyridin-8-yl)-1,3-dihydrobenzo[c]isothiazole 2,2-dioxide], the IC50 [1] was 101 to 500 nM.

COC1CN(C(=O)c2ccc3c(N)ncc(-c4ccc5c(cnn5C)c4)c3n2)C1 [Compound 140, (5-amino-8-(1-methyl-1H-indazol-5-yl)-1,6-naphthyridin-2-yl)(3-methoxyazetidin-1-yl)methanone] was tested, and the IC50 [1] was 10 to 100 nM.

Cn1cc(-c2ccc(-c3cncc4ccc(-c5nnnn5C)cc34)cc2)cn1 [Compound 123, 4-(4-(1-methyl-1H-pyrazol-4-yl)phenyl)-6-(1-methyl-1H-tetrazol-5-yl)isoquinoline] was tested, and the IC50 [1] was 10 to 100 nM.

O=C(c1ccc2cncc(-c3ccc4c(c3)CS(=O)(=O)N4)c2n1)N1CCC(F)(F)C1 [Compound 30, (3,3-difluoro-pyrrolidin-1-yl)-[8-(2,2-dioxo-2,3-dihydro-1H-benzo[c]isothiazol-5-yl)-[1,6]naphthyridin-2-yl]-methanone] gave an IC50 [1] of less than 10 nM.

CN(c1ccc2cncc(-c3ccc(-c4cnn(C)c4)cc3)c2c1)S(C)(=O)=O [Compound 139, N-methyl-N-(4-(4-(1-methyl-1H-pyrazol-4-yl)phenyl)isoquinolin-6-yl)methanesulfonamide] was tested, and the IC50 [1] was 10 to 100 nM.

COCCNC(=O)c1ccc2cncc(-c3ccc(-c4cnn(C)c4)cc3)c2n1 [Compound 74, N-(2-Methoxyethyl)-8-(4-(1-methyl-1H-pyrazol-4-yl)phenyl)-1,6-naphthyridine-2-carboxamide] was tested, and the IC50 [1] was less than 10 nM.

CNc1ccc2cncc(-c3ccc(-c4cnn(C)c4)cc3)c2n1 [Compound 56, N-methyl-8-(4-(1-methyl-1H-pyrazol-4-yl)phenyl)-1,6-naphthyridin-2-amine] showed an IC50 [1] of 101 to 500 nM.

Work on CN(O)C(=O)c1ccc2cncc(-c3ccc(-c4cnn(C)c4)cc3)c2n1 [Compound 76, N-Hydroxy-N-methyl-8-(4-(1-methyl-1H-pyrazol-4-yl)phenyl)-1,6-naphthyridine-2-carboxamide] yielded an IC50 [1] of less than 10 nM.

With C[C@@H](NC(=O)c1ccc2cncc(Br)c2n1)c1ccccc1 [Compound 48, (R)-8-bromo-N-(1-phenylethyl)-1,6-naphthyridine-2-carboxamide] the IC50 [1] was 10 to 100 nM.

Cn1cc(-c2ccc(-c3cncc4ccc(O)nc34)cc2)cn1 [Compound 79, 8-(4-(1-methyl-1H-pyrazol-4-yl)phenyl)-1,6-naphthyridin-2-ol] gave an IC50 [1] of 501 to 1000 nM.

CC(=O)NCc1ccc2cncc(-c3ccc4c(c3)CS(=O)(=O)N4C)c2n1 [Compound 38, N-[8-(1-Methyl-2,2-dioxo-2,3-dihydro-1H-benzo[c]isothiazol-5-yl)-[1,6]naphthyridin-2-ylmethyl]-acetamide] gave an IC50 [1] of 10 to 100 nM.

In the case of CN1c2ccc(-c3cnc(N)c4ccc(CO)nc34)cc2CS1(=O)=O [Compound 58, [5-Amino-8-(1-methyl-2,2-dioxo-2,3-dihydro-1H-benzo[c]isothiazol-5-yl)-[1,6]naphthyridin-2-yl]-methanol], the IC50 [1] is reported as 101 to 500 nM.

Nc1ncc(-c2ccc3c(c2)CS(=O)(=O)N3)c2nc(C(=O)N3CCC(F)(F)C3)ccc12 [Compound 50, (5-Amino-8-(2,2-dioxido-1,3-dihydrobenzo[c]isothiazol-5-yl)-1,6-naphthyridin-2-yl)(3,3-difluoropyrrolidin-1-yl)methanone] was tested, and the IC50 [1] was 10 to 100 nM.

With CC1CC(=O)N(c2ccc3cncc(-c4ccc(-c5cnn(C)c5)cc4)c3c2)C1 (centres unmarked) [Compound 111, 4-Methyl-1-{4-[4-(1-methyl-1H-pyrazol-4-yl)-phenyl]-isoquinolin-6-yl}-pyrrolidin-2-one] the IC50 [1] was 10 to 100 nM.

Cn1cc(-c2ccc(-c3cncc4ccc(C(N)=O)cc34)cc2)cn1 [Compound 96, 4-(4-(1-methyl-1H-pyrazol-4-yl)phenyl)isoquinoline-6-carboxamide] showed an IC50 [1] of less than 10 nM.

In the case of CC(C)(O)Cn1cc(-c2ccc(-c3cncc4ccc(C(=O)N5CCOCC5)cc34)cc2)cn1 [Compound 135], the IC50 [1] is reported as 10 to 100 nM.

Cn1cc(-c2ccc(-c3cncc4ccc(C(=O)NCc5ccc(C(F)(F)F)cc5)nc34)cc2)cn1 [Compound 87, 8-(4-(1-methyl-1H-pyrazol-4-yl)phenyl)-N-(4-(trifluoromethyl)benzyl)-1,6-naphthyridine-2-carboxamide] showed an IC50 [1] of 10 to 100 nM.

With O=C(c1ccc2cncc(Br)c2n1)N1CCC[C@H]1c1ccc(Cl)cc1 [Compound 34, (S)-(8-bromo-1,6-naphthyridin-2-yl)(2-(4-chlorophenyl)pyrrolidin-1-yl)methanone] the IC50 [1] was less than 10 nM.
